Data on two compounds can be found in paper PMC11555678, “Improved Broad Spectrum Antifungal Drug Synergies with Cryptomycin, a Cdc50-Inspired Antifungal Peptide” (ACS Infectious Diseases, 2024).

Test [1] deals with C. neoformans H99. More on the design: method as in PMID 35377230. The settings on record: with CAS, additive drug synergy; cited from earlier work. An excerpt:
We endeavored to develop an inhibitor to target flippase function in Cn and harness the critical importance of Cdc50 in antifungal drug resistance and virulence. […] The peptide sequence was identified using an epitope approach. First, anti-Cdc50 polyclonal antibodi ...

Test [2] has as its system C. neoformans H99. The settings on record: previously published peptide; cited from earlier work.
The subject of test [3] is C. neoformans H99. It is filed as cell-based, Cryptococcus neoformans. The conditions noted are these: 2× MIC; subsequent rebound of the population through 8 h; RPMI1640, 30 °C. As for the experimental part: Culture tubes were prepared with aliquots of 2.0 mL of RPMI1640 (containing Q, MOPS, pH = 7, no phenol red). The tubes were sealed to prevent evaporation and were equilibrated with the incubation chamber overnight, at 30 °C. On the day of the experiment, overnight yeast cultures in YPD were washed twice with DD-H2O and resuspended in DD-H2O. The OD600 of the cell suspension was adjusted to 4.6, ≈2 × 10^6 cfu/mL, in DD-H2O. A 200 μL aliquot of adjusted cell suspension was added systematically to each tube, followed by 200 μL sampling for the 0 h time point. Immediately after sampling, the antifungal compounds were added, and the tubes were placed in the incubator at 30 °C with shaking at 225 rpm. The sampled aliquot was transferred to a 96-well plate and serially diluted six times, 10-fold each time. The resulting cell suspensions were spotted onto YPD plates in a grid pattern of 5 μL per spot. Subsequently, tubes were briefly removed from the incubator, and 100 μL aliquots were sampled at 2, 4, 6, and 8 h time points. Cells were counted on the YPD plates at either 24 or 48 h after plate spotting, depending on when the colonies were countable. Images of the YPD plates were recorded on the Bio-Rad Gel imager after 48 h of incubation at 30 °C. […] 2 C = number of colonies counted, Df = dilution factor = 10^n–1, n = column that the cells were counted, and Vf = volume factor = 1/0.005 mL.

The subject of test [4] is Cn cdc50Δ. Briefly: microbe, parasite or virus in culture. It is filed as cell-based, Cryptococcus neoformans. The conditions noted are these: 37 °C, 48 h. On the procedure: (§1) Previous studies have shown that modifying microbiological media with salts such as CaCl2 can have a drastic effect on the growth of fungi and their responses to antifungals.[19],[35] In the case of CaCl2, the divalent cation, Ca^2+, is involved in fungal cell stress response. To understand how the peptide activity may involve calcium and stress response, the MICs of KKOO, KKOO-NH2, FLC, and CAS were assessed as a function of the calcium concentration in liquid YPD media. It was observed that calcium enrichment completely desensitized the wild-type strain to KKOO and KKOO-NH2, Tables 7 and 8, respectively. Effects of calcium enrichment on the susceptibility of Cryptococcus to CAS similar to literature values were recorded, Supporting Information, Table S7.[35]
(§2) In order to control for the effects of enriching YPD with a divalent cation, MICs and ROS production were also measured as a function of the MgCl2 supplement at the same millimolar concentrations of cation as in the CaCl2-modified experiments. […] No peptide susceptibility changes were observed against Cn cdc50Δ in magnesium-enriched media, Table S9. ROS production in H99 induced by peptide exposure was inhibited after 30 min of treatment in the magnesium-enriched condition, similar to the levels observed in the calcium-enriched media at 16 μg/mL KKOO-NH2, Figure S1. […] The link between peptide activity and calcium homeostasis may be vital in understanding precisely how the peptide kills fungal cells and requires more research to elucidate.
(§3) All microdilution assays with fungi were carried out in accordance with CLSI protocols from M27 for yeasts and M38 for filamentous fungi, respectively, unless otherwise specified.[64],[65] Briefly, 96-well plates were charged with RPMI1640 media, with operating volume in the first column, 200 μL, and half operating volume, 100 μL, in the remaining wells. Drug stock solution in DMSO was aliquoted into the first well in each row. Half of the volume in the dosed well was serially diluted 2-fold until column 11. Column 11 was used as the negative growth control, and column 12 was used as the positive growth control. ON yeast cultures in YPD were washed twice in DD-H2O, resuspended in PBS, and adjusted to 5000 cfu/mL in RPMI. The 96-well plate was inoculated with 100 μL aliquots of cell suspension per well. Plates were incubated at 37 °C for 2 days.

Test [5] relates to Cn H99. Briefly: microbe, parasite or virus in culture. It counts as cell-based, Cryptococcus neoformans. The conditions noted are these: 37 °C, 48 h. On the procedure: as §1, §2, §3
Test [6] has as its system C. glabrata 2001. Description: microbe, parasite or virus in culture. It counts as cell-based, Candida glabrata. On the procedure: as §3
Test [7] concerns C. glabrata FKS2-S663P. Description: microbe, parasite or virus in culture. The settings on record: compound alone; RPMI1640, 37 °C, 48 h. It counts as cell-based, Candida glabrata. On the procedure:
as §3

In test [8] the test system is C. glabrata FKS1-S629P. Briefly: microbe, parasite or virus in culture. It is filed as cell-based, Candida glabrata. The conditions noted are these: compound alone; RPMI1640, 37 °C, 48 h. As for the experimental part: as §3
Test [9] concerns C. albicans SC5413. Briefly: microbe, parasite or virus in culture. It is filed as cell-based, Candida albicans. On the procedure:
as §3

Test [10] concerns C. auris B11245. Description: microbe, parasite or virus in culture. It counts as cell-based, Candida auris. The conditions noted are these: compound alone; RPMI1640, 37 °C, 48 h; * = paradoxical growth observed (CAS). As for the experimental part: as §3
Test [11] concerns Cn apt1Δ. Description: microbe, parasite or virus in culture. The settings on record: 37 °C, 48 h. It is filed as cell-based, Cryptococcus neoformans. On the procedure: as §1, §3
In test [12] the test system is Cn crm1Δ. Description: microbe, parasite or virus in culture. It is filed as cell-based, Cryptococcus neoformans. The conditions noted are these: YPD + 0 mM Ca2+, 37 °C, 48 h. On the procedure: as §1, §3
In test [13] the test system is Cn Crm1-oe. Briefly: microbe, parasite or virus in culture. The conditions noted are these: YPD + 0 mM Ca2+, 37 °C, 48 h. It counts as cell-based, Cryptococcus neoformans. On the procedure: as §1, §3
Test [14] relates to C. neoformans crm1Δ. Description: microbe, parasite or virus in culture. It counts as cell-based, Cryptococcus neoformans. The settings on record: compound alone; RPMI1640, 37 °C, 48 h. On the procedure: as §3
Test [15] concerns C. neoformans apt3Δ. Description: microbe, parasite or virus in culture. The conditions noted are these: compound alone; RPMI1640, 37 °C, 48 h. It counts as cell-based, Cryptococcus neoformans. As for the experimental part:
as §3

The test system of test [16] is C. neoformans H99. Briefly: microbe, parasite or virus in culture. It counts as cell-based, Cryptococcus neoformans. On the procedure:
as §3

Test [17] relates to C. neoformans Crm1^OE. Briefly: microbe, parasite or virus in culture. It counts as cell-based, Cryptococcus neoformans. The settings on record: compound alone; RPMI1640, 37 °C, 48 h. As for the experimental part: as §3
For test [18], the system named is C. neoformans cdc50Δ. Description: microbe, parasite or virus in culture. It is filed as cell-based, Cryptococcus neoformans. On the procedure: as §3
Test [19] concerns C. neoformans apt2Δ. Briefly: microbe, parasite or virus in culture. It counts as cell-based, Cryptococcus neoformans. The settings on record: compound alone; RPMI1640, 37 °C, 48 h. As for the experimental part: as §3
Test [20] deals with C. neoformans apt1Δ. Description: microbe, parasite or virus in culture. It counts as cell-based, Cryptococcus neoformans. The settings on record: compound alone; RPMI1640, 37 °C, 48 h. As for the experimental part:
as §3

For test [21], the system named is C. neoformans MRL862. Description: microbe, parasite or virus in culture. It is filed as cell-based, Cryptococcus neoformans. The conditions noted are these: compound alone; RPMI1640, 37 °C, 48 h. On the procedure: as §3
The subject of test [22] is C. neoformans apt4Δ. Description: microbe, parasite or virus in culture. It counts as cell-based, Cryptococcus neoformans. The conditions noted are these: compound alone; RPMI1640, 37 °C, 48 h. On the procedure: as §3
The test system of test [23] is A. fumigatus AF293. Description: microbe, parasite or virus in culture. It counts as cell-based, Aspergillus fumigatus. The conditions noted are these: compound alone; RPMI1640, 37 °C, 48 h; * = paradoxical growth observed (CAS). As for the experimental part: as §3
[24] abbreviates: Table S1, unit and conditions not given (MICs elsewhere in μg/mL).
Setting [25] is: compound alone, RPMI1640, 37 °C, 48 h.

Values after ≈ are worked out from the molar mass of the structure shown. Read-outs that look alike come from different tables or passages of the source. Square brackets hold non-standard residues; d marks the D form. Ends that are not written are not given here. Peptide text beside a SMILES is read from it. * marks the point of attachment. Myristoyl = CCCCCCCCCCCCCC(=O)*; Orn = NCCC[C@H](N)C(=O)O A value given as a limit tells only on which side of the number the result lay.

For AW9-Ma (Myristoyl-WGGIKKNYA), the “fractional inhibition concentration (FIC) index” value in [1] is given as 0.5. Moreover, the MIC in test [2] was 64 µg/mL.

Take `CCCCCCCCCCCCCC(=O)N[C@@H](Cc1c[nH]c2ccccc12)C(=O)NCC(=O)NCC(=O)N[C@H](C(=O)N[C@@H](CCCN)C(=O)N[C@@H](CCCN)C(=O)N[C@@H](CC(N)=O)C(=O)N[C@@H](Cc1ccc(O)cc1)C(=O)N[C@@H](C)C(=O)O)[C@@H](C)CC` [KKOO] (Myristoyl-WGGI[Orn][Orn]NYA-OH): the “time of peak killing activity” value in test [3] was ≤ 2 h. Moreover, the MIC amounted to 4 µg/mL in test [4] (YPD + 0 mM Ca2+); 8 µg/mL in test [4] (YPD + 0 mM Mg2+, unit inferred); 8 µg/mL in [4] (YPD + 2.5 mM Ca2+); 8 µg/mL in test [4] (YPD + 2.5 mM Mg2+, unit inferred); 8 µg/mL in test [4] (YPD + 5 mM Ca2+); 8 µg/mL in test [4] (YPD + 5 mM Mg2+, unit inferred). Also, the MIC in test [4] (YPD + 10 mM Ca2+) was found to be 8 µg/mL; in [4] (YPD + 10 mM Mg2+, unit inferred), 4 µg/mL; in [4] (YPD + 20 mM Ca2+), 8 µg/mL; in test [4] (YPD + 20 mM Mg2+, unit inferred), 8 µg/mL; in [5] (YPD + 0 mM Ca2+), 32 µg/mL; in [5] (YPD + 0 mM Mg2+), 16 µg/mL. The MIC in test [5] (YPD + 2.5 mM Ca2+) was >128 µg/mL; in test [5] (YPD + 2.5 mM Mg2+) it was 32 µg/mL; in test [5] (YPD + 5 mM Ca2+), >128 µg/mL; in [5] (YPD + 5 mM Mg2+), 32 µg/mL; in test [5] (YPD + 10 mM Ca2+), >128 µg/mL; in test [5] (YPD + 10 mM Mg2+), 32 µg/mL. The MIC in test [5] (YPD + 20 mM Ca2+) was >128 µg/mL; in test [5] (YPD + 20 mM Mg2+), 128 µg/mL; in [6] (setting [25]), 16 µg/mL (≈ 13.1 µM); in [7], 16 µg/mL (≈ 13.1 µM); in [8] it was 16 µg/mL (≈ 13.1 µM); in [9] (setting [25]) it was 32 µg/mL (≈ 26.3 µM). Further, the MIC in test [10] is > 128 µg/mL; in test [11] (YPD + 0 mM Ca2+) it was 8 µg/mL; in test [11] (YPD + 2.5 mM Ca2+) it was 32 µg/mL; in [12], 8 µg/mL; in test [13], 8 µg/mL; in test [14], 8 µg/mL (≈ 6.57 µM). The MIC in [15] stood at 8 µg/mL (≈ 6.57 µM); in test [16] (setting [25]), 16 µg/mL (≈ 13.1 µM); in [17], 8 µg/mL (≈ 6.57 µM); in test [18] (setting [25]) it was 4 µg/mL (≈ 3.28 µM); in test [19], 8 µg/mL (≈ 6.57 µM); in [20] it was 4 µg/mL (≈ 3.28 µM). Moreover, the MIC in test [21] was 8 µg/mL (≈ 6.57 µM); in test [22], 8 µg/mL (≈ 6.57 µM); in test [23] it was > 128 µg/mL. Moreover, the “MIC (SAR screen peptides)” value in test [6] (setting [24]) is recorded as 16; in [9] (setting [24]), 16; in [16] (setting [24]), 16; in test [18] (setting [24]) it was 4.
